Data from paper PMC7037052, “Predicting the Blood-Brain Barrier Permeability of New Drug-Like Compounds via HPLC with Various Stationary Phases” (Molecules, 2020).

Experiments:
Assay type in all cases: physicochemical
[1] = RP-HPLC retention on IAM.PC.DD2 (immobilized artificial membrane) column, buffer pH 7.4-acetonitrile; details: for log kw, IAM: extrapolated to buffer pH 7.4 as mobile phase, 25 °C; for s IAM: slope of Soczewiński-Wachtmeister equation, acetonitrile φ 0.2–0.5
Protocol: (§1) Retention parameters reported as the log k values were calculated by the expression:(1) logk=log(tR−t0)/t0 where tR and t0 are the retention times of the solute and a non-retained compound (citric acid), respectively. They were used to calculate the log kw values, i.e., logarithms of retention parameter in the buffer as the mobile phase. For this purpose the Soczewiński-Wachtmeister’s equation was used:log k = log kw − sφ(2) where φ is the volume fraction of organic modifier in the mobile phase; k and kw are retention parameters corresponding to mixed effluent and buffer as the mobile phase, respectively. The slope s is characteristic of a given solute and chromatographic system. Strong linear relationships between log k and φ values were found for all the compounds in the range of effluent composition examined (R^2 > 0.9). The log kw values determined for the ODS (log kw, ODS), IAM (log kw, IAM) and Cholester (log kw, Cholester) columns were intercorrelated and the following linear relationships with a very good statistical quality were obtained:log kw, ODS = 0.691(± 0.094) + 0.982(± 0.044) log kw, IAM(3) SD = 0.257; R^2 = 0.8880; N = 65 log kw, ODS = 0.911(± 0.062) + 0.765(± 0.025) log kw, Cholester(4) SD = 0.192; R^2 = 0.9371; N = 65 log kw, IAM = 0.356(± 0.073) + 0.721(± 0.029) log kw, Cholester(5) SD = 0.224; R^2 = 0.9068; N = 65
(§2) Shimadzu Vp (Shimadzu, Izabelin, Poland) liquid chromatographic system equipped with LC 10AT pump, SPD 10A UV-Vis detector, SCL 10A system controller, CTO-10 AS chromatographic oven and Rheodyne injector valve with a 20 µL loop was applied in HPLC measurements. Three stationary phases were employed: • Purosphere RP-18e (ODS), 125 × 4 mm i.d., 5 µm (Merck); • IAM.PC.DD2 100 × 4.6 mm i.d., 10 µm (Regis Chemicals Company, Morton Grove, IL, USA); • Cosmosil Cholester, 75 × 2 mm i.d., 2.5 µm (Genore, Warsaw, Poland).
(§3) As mobile phases buffer-acetonitrile mixtures were used. The buffer was prepared from 0.01 mol L^−1 solutions of Na2HPO4 and citric acid and the pH 7.4 value was fixed before mixing with organic modifier. With the ODS column acetonitrile concentration in the effluent, expressed as a volume fraction (φ, v/v), was changed in the range 0.3–0.6, with the constant step of 0.1. The flow rate was 1 mL min^−1. With the IAM column acetonitrile concentration was changed in the range 0.2–0.5, also with the constant step of 0.1 and the flow rate was 1.3 mL min^−1. With the Cosmosil Cholester column acetonitrile concentration was changed in the range 0.4–0.6, with the constant step of 0.05 and the flow rate was 0.4 mL min^−1. Samples of test compounds were dissolved in acetonitrile—c.a. 0.005 mg mL^−1. […] They were detected under UV light at 210 and 254 nm. All measurements were carried out at 25 °C. The dead time values were measured from non-retained compound (citric acid) peaks. All reported log kw values are the average of at least three independent measurements. The extrapolated retention coefficients (logs kw) achieved by HPLC on ODS, IAM and Cholester stationary phases were used for modelling the log BB permeation of 65 drug-like compounds employed as a whole test set (Table 1).

[2] = RP-HPLC retention on Cosmosil Cholester column, buffer pH 7.4-acetonitrile; details: for log kw, Cholester: extrapolated to buffer pH 7.4 as mobile phase, 25 °C; for s Cholester: slope of Soczewiński-Wachtmeister equation, acetonitrile φ 0.4–0.6
Protocol: as §1, §2, §3

[3] = RP-HPLC retention on Purosphere RP-18e (ODS) column, buffer pH 7.4-acetonitrile; details: for log kw, ODS: extrapolated to buffer pH 7.4 as mobile phase, 25 °C; for s ODS: slope of Soczewiński-Wachtmeister equation, acetonitrile φ 0.3–0.6
Protocol: as §1, §2, §3

SMILES | log kw, IAM [1] | s IAM [1] | log kw, Cholester [2] | s Cholester [2] | log kw, ODS [3] | s ODS [3]
CCc1nnc2n(c1=O)CCN2c1ccccc1Cl [Compound 3] | 0.80 | 2.51 | 0.46 | 1.70 | 1.22 | 3.02
COC(=O)Cc1nnc2n(c1=O)CCN2c1ccccc1 [Compound 7] | 0.81 | 2.38 | 0.58 | 1.92 | 1.28 | 3.09
COC(=O)Cc1nnc2n(c1=O)CCN2c1ccc(OC)cc1 [Compound 9] | 0.81 | 2.45 | 0.57 | 1.82 | 1.30 | 3.02
CCOc1ccc(N2CCn3c2nnc(CC(=O)OC)c3=O)cc1 [Compound 10] | 1.42 | 3.39 | 1.36 | 2.81 | 1.95 | 3.91
COC(=O)Cc1nnc2n(c1=O)CCN2c1ccc(Cl)cc1 [Compound 11] | 1.82 | 4.39 | 1.82 | 3.55 | 2.36 | 4.44
CCOC(=O)Cc1nnc2n(c1=O)CCN2c1ccccc1 [Compound 12] | 1.21 | 3.11 | 1.11 | 2.55 | 1.75 | 3.61
CCOC(=O)Cc1nnc2n(c1=O)CCN2c1ccc(C)cc1 [Compound 13] | 1.70 | 3.85 | 1.92 | 3.58 | 2.37 | 4.36
CCOC(=O)Cc1nnc2n(c1=O)CCN2c1ccc(OC)cc1 [Compound 14] | 0.91 | 2.58 | 0.65 | 1.92 | 1.37 | 3.15
CCOC(=O)Cc1nnc2n(c1=O)CCN2c1ccc(Cl)cc1 [Compound 16] | 2.11 | 4.51 | 2.37 | 4.19 | 2.80 | 4.88
CCOC(=O)Cc1nnc2n(c1=O)CCN2c1ccc(Cl)c(Cl)c1 [Compound 17] | 2.42 | 5.01 | 2.77 | 4.61 | 3.16 | 5.33
O=c1c(-c2ccco2)nnc2n1CCN2c1ccccc1 [Compound 18] | 1.29 | 3.23 | 1.43 | 3.12 | 2.12 | 4.06
Cc1ccc(N2CCn3c2nnc(-c2ccco2)c3=O)cc1 [Compound 20] | 1.69 | 3.90 | 2.03 | 3.68 | 2.43 | 4.39
COc1ccc(N2CCn3c2nnc(-c2ccco2)c3=O)cc1 [Compound 23] | 1.19 | 3.13 | 1.53 | 3.05 | 1.91 | 3.82
O=c1c(-c2ccco2)nnc2n1CCN2c1cccc(Cl)c1 [Compound 25] | 2.08 | 4.55 | 2.36 | 4.05 | 2.75 | 4.85

Next, values leading:

log kw, IAM [1] | s IAM [1] | log kw, Cholester [2] | s Cholester [2] | log kw, ODS [3] | s ODS [3] | SMILES
2.02 | 4.44 | 2.29 | 4.15 | 2.65 | 4.59 | O=c1c(-c2ccco2)nnc2n1CCN2c1ccc(Cl)cc1 [Compound 26]
3.23 | 6.30 | 2.92 | 4.85 | 3.46 | 5.68 | O=c1c(-c2ccco2)nnc2n1CCN2c1ccc(Cl)c(Cl)c1 [Compound 27]
1.91 | 4.22 | 2.34 | 4.02 | 2.49 | 4.51 | O=c1c(-c2ccccc2)nnc2n1CCN2c1ccccc1 [Compound 29]
1.53 | 3.52 | 1.88 | 3.50 | 2.12 | 4.01 | Cc1ccccc1N1CCn2c1nnc(-c1ccccc1)c2=O [Compound 30]
2.26 | 4.68 | 2.77 | 4.42 | 2.93 | 5.02 | Cc1cccc(N2CCn3c2nnc(-c2ccccc2)c3=O)c1 [Compound 31]
2.22 | 4.81 | 2.86 | 4.65 | 2.93 | 5.06 | Cc1ccc(N2CCn3c2nnc(-c2ccccc2)c3=O)cc1 [Compound 32]
1.47 | 3.62 | 1.69 | 2.94 | 1.98 | 3.99 | COc1ccccc1N1CCn2c1nnc(-c1ccccc1)c2=O [Compound 33]
1.71 | 3.91 | 2.27 | 3.80 | 2.59 | 4.62 | COc1ccc(N2CCn3c2nnc(-c2ccccc2)c3=O)cc1 [Compound 34]
2.14 | 4.48 | 2.80 | 4.61 | 3.09 | 5.33 | CCOc1ccc(N2CCn3c2nnc(-c2ccccc2)c3=O)cc1 [Compound 35]
1.85 | 4.05 | 2.34 | 3.60 | 2.74 | 4.85 | Cc1cccc(N2CCn3c2nnc(-c2ccccc2)c3=O)c1C [Compound 36]
1.73 | 3.84 | 1.96 | 3.65 | 2.43 | 4.60 | O=c1c(-c2ccccc2)nnc2n1CCN2c1ccccc1Cl [Compound 37]
2.64 | 5.41 | 3.20 | 5.20 | 3.29 | 5.70 | O=c1c(-c2ccccc2)nnc2n1CCN2c1cccc(Cl)c1 [Compound 38]
3.26 | 6.40 | 3.86 | 6.02 | 3.48 | 5.90 | O=c1c(-c2ccccc2)nnc2n1CCN2c1ccc(Cl)c(Cl)c1 [Compound 40]
3.26 | 6.45 | 2.23 | 3.75 | 2.90 | 5.02 | O=c1c(Cc2ccccc2)nnc2n1CCN2c1ccccc1 [Compound 41]
